Assay results from PubChem BioAssay AID1250 (SRMLSC, 2008).
Active and inactive are the calls of the source.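 Rule for the calls: active = inhibition of at least 30% at one or more tested concentrations; inactive = inhibition below 30% at every dose.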

assay: inhibitors of Bluetongue virus cytopathic effect, confirmation, arbovirus, BSR cells (AID 1250); conditions: BSR cells, Bluetongue virus CPE, ATP luminescence, 72 h; at 20 µM (top of the series)

Structure (SMILES) | CPE inhibition
O=Cc1ccc(OCc2ccccn2)cc1 | 2.77% (inactive)
O=C1CC(=O)N(Cc2ccco2)C(=O)N1 | 2.11% (inactive)
O=c1[nH]c(SCc2ccccc2)nnc1-c1ccccc1 | 3.2% (inactive)
COCCCNc1nc(-c2ccncc2)nc2ccccc12 | 7.45% (inactive)
C=CCn1c(SC(C)C(N)=O)nc2sc(CC)cc2c1=O (stereo not given) | 18% (inactive)
O=c1oc(/C=C/c2ccccc2)nc2ccccc12 | 16.6% (inactive)
COc1ccccc1-n1c(C)cc(/C=C2/C(=N)N3C(=NC2=O)SN=C3S(C)(=O)=O)c1C | 18.1% (inactive)
CC(C)CCN(C(=S)NC(=O)C1CCCCC1)c1c(N)n(Cc2ccccc2)c(=O)[nH]c1=O | 7% (inactive)
Fc1ccccc1COc1ccc2ccccc2c1CNc1nn[nH]n1 | 11.5% (inactive)
O=c1oc(-c2cccs2)nc2sc3c(c12)CCCC3 | 21.2% (inactive)
Cc1nc(Nc2ccccc2)sc1-c1ccccc1 | 3.32% (inactive)
COc1cc2ccccc2cc1C(=O)NC(=S)Nc1cc(C(=O)O)ccc1C | 17.8% (inactive)
CCOc1ccc(S(=O)(=O)N2CCN(c3ccccc3OC)CC2)c2cccnc12 | 17.1% (inactive)
CCOC(=O)c1c(-c2ccc(C)cc2)csc1NC(=O)C1CC=CCC1C(=O)O (stereo not given) | 18.1% (inactive)
COc1ccc(-c2csc(Nc3ccc(S(=O)(=O)Nc4cc(C)on4)cc3)n2)cc1 | 14.2% (inactive)
C(=N\Nc1nc(-c2ccccc2)cs1)/c1ccco1 | 20.9% (inactive)
Cc1ccc2nc(-c3ccc(Br)o3)oc(=O)c2c1 | 21.3% (inactive)
O=S(=O)(Nc1ccc(-c2nnc(SCc3ccc(Cl)cc3)o2)cc1)c1ccccc1 | 7.09% (inactive)
CCN(Cc1ccncc1)Cc1c(O)ccc2cc(Br)ccc12 | 8.02% (inactive)
CC1=Nc2ccc(C)cc2/C1=C/c1c(N)n2c(S(=O)(=O)C(C)C)nsc2nc1=O | 15.9% (inactive)
CCCc1cc(=O)[nH]c(SCc2ccc(C#N)cc2)n1 | 14.6% (inactive)
CCOCCCNC(=S)NCCNc1nc2c(C)cccc2cc1C#N | 7.38% (inactive)
COc1ccccc1NC(=O)C12CC3CC(C1)CC(c1ccc(C)cc1)(C3)C2 | 18.9% (inactive)
N=C1/C(=C/c2ccc(-c3cccc(C(=O)O)c3)o2)C(=O)N=C2SC=C(c3ccccc3)N12 | 16.8% (inactive)

Structure (SMILES) | CPE inhibition
COC(=O)c1ccccc1NC(=O)c1ccc(COc2ccc(C)c(C)c2)o1 | 27.6% (inactive)
COC(=O)c1ccccc1NC(=O)CN1CCC(n2nnc3cc(C(F)(F)F)ccc32)CC1 | 16.3% (inactive)
COCCn1c(-c2ccccc2Cl)nc2c(c(=O)c3ccccc3n2C)c1=O | 4.39% (inactive)
C/C(=N\NS(=O)(=O)c1ccccc1)c1cccc(NC(=O)c2cccc(Cl)c2)c1 | 15.9% (inactive)
O=C(O)CSc1nnc(CNc2cccc(C(F)(F)F)c2)n1Cc1ccco1 | 3.89% (inactive)
O=C(O)CCCC(=O)Nc1nc2n(n1)C(c1ccc(F)cc1)CC(c1ccc(Cl)cc1)N2 (stereo not given) | 2.43% (inactive)
Cc1cccc(C)c1Nc1nnc(SC/C(O)=C(\C#N)c2nc3ccccc3[nH]2)s1 | 16.8% (inactive)
CN1CCN(c2ccc(/C=C3\C(=O)NC(=S)N(c4cccc(Br)c4)C3=O)o2)CC1 | 14.7% (inactive)
COCCn1c(SC(C)C(=O)Nc2ncc(Cl)cc2Cl)nc2ccccc21 (stereo not given) | 21% (inactive)
O=C(c1coc(=O)c(Br)c1)N1CCCc2ccccc21 | 4.27% (inactive)
Oc1ccc(F)cc1-c1cc(-c2ccc3c(c2)OCCO3)n[nH]1 | 7.86% (inactive)
CC(C)C(=O)Nc1nnc(SCC(=O)N2c3ccccc3CC2C)s1 (stereo not given) | 11.5% (inactive)
CC1CCCN(C(=O)c2cccc(S(=O)(=O)Nc3cc(C(F)(F)F)ccc3Cl)c2)C1 (stereo not given) | 28.2% (inactive)
CC1(C)C2CCC(C2)C1(C)NC(=O)CNCc1cccs1 (stereo not given) | 2.65% (inactive)
CCOC(=O)N1CCC(Nc2c(Nc3cccc(CC)c3)c(=O)c2=O)CC1 | 9.52% (inactive)
O=c1c(Cl)c(N2CCN(c3ccc(F)cc3)CC2)cnn1C12CC3CC(CC(C3)C1)C2 | -3.76% (inactive)
O=[N+]([O-])c1ccc(-c2c(O)c3ccccc3c3nc4ccccc4nc23)cc1 | 25.8% (inactive)
COc1ccc(NC(=O)C(=O)N/N=C/c2cc(C)n(-c3cccc(Cl)c3Cl)c2C)c(OC)c1 | 20.7% (inactive)
FC(F)(F)c1cccc(Oc2ccc3c(C(F)(F)F)cc(C(F)(F)F)nc3n2)c1 | 3.1% (inactive)
Cc1cccc(-n2c(=O)c3c4c(sc3n3c(=S)[nH]nc23)CCC4)c1 | 7.97% (inactive)
CCOC(=O)c1cnc(SCc2nc(N)nc(Nc3ccc(C)cc3)n2)nc1N | 29.3% (inactive)
COc1ccccc1NC(=O)CN1CCC(n2c(C)nc3cc(F)ccc32)CC1 | 23.7% (inactive)
O=C(NC1=NCCS1)c1ccc(Cl)c(S(=O)(=O)N2CCCC2)c1 | 12.3% (inactive)
COC(=O)c1ccccc1N/C=C/C(=O)c1ccc(Br)cc1 | 28.6% (inactive)

Structure (SMILES) | CPE inhibition
CN(C)Cc1c(O)c(Cl)cc2c3c(c(=O)oc12)CCCC3 | -0.25% (inactive)
N#Cc1c2n(c3c(=S)nc[nH]c13)CCCCC2 | 9.66% (inactive)
CCCCN(CC)C(=O)CSc1nc2c(sc(=S)n2-c2ccc(OCC)cc2)c(=O)[nH]1 | 18.4% (inactive)
COc1ccc(CCCc2nnc(SCc3nc4ccccc4c(=O)[nH]3)n2C)cc1 | 3.86% (inactive)
COc1ccccc1C(=O)NCC1CCN(c2ccc(S(=O)(=O)N3CCOCC3)cc2)CC1 | 6.04% (inactive)
Cc1cc(C(=O)CSc2nnc(-c3ccco3)o2)c(C)n1Cc1ccco1 | 2.98% (inactive)
CCSc1nnc(NC(=O)c2ccc(C)cc2)s1 | 5.39% (inactive)
Cc1cc(C)c(NC(=S)NC(=O)c2ccc(-c3ccccc3)cc2)c(C)c1 | 14.9% (inactive)
CCOC(=O)c1ccc(N2CCN(c3ccccc3F)CC2)c(NC(=O)Nc2ccccc2)c1 | 19.7% (inactive)
Cc1nc(CNS(=O)(=O)c2cccnc2)cs1 | 4.68% (inactive)
Oc1ccc(Br)cc1-c1cc(-c2ccccc2)n[nH]1 | 19.6% (inactive)
Cn1cc(CN2CCN(c3ccccc3)CC2)c2ccccc21 | 12% (inactive)
O=c1[nH]n2c(=O)c3c([nH]c2c1N=Nc1cccc(Cl)c1)CCC3 | 16.8% (inactive)
CCCCCc1nnc(NC(=O)C2COc3ccccc3O2)s1 (stereo not given) | 17.9% (inactive)
O=C(Nn1c(SCc2cccc([N+](=O)[O-])c2)nc2ccccc2c1=O)c1ccccc1 | 29.8% (inactive)
CC(=O)Nc1ccc(NC(=O)COc2ccccc2C(=O)Nc2cccc(Cl)c2Cl)cc1 | 15% (inactive)
Cc1ccc(C(=O)c2coc3cc([N+](=O)[O-])c(O)c([N+](=O)[O-])c23)cc1 | 18.6% (inactive)
C=C(C)CN(CC)C(=O)CSc1nc(O)cc(=O)n1C1CCCC1 | -1.91% (inactive)
c1ccc(-c2csc3ncnc(NCCCN4CCOCC4)c23)cc1 | 4.19% (inactive)
O=[N+]([O-])c1ccc(NCCNCCOc2nonc2-c2ccccc2)c([N+](=O)[O-])c1 | 6.24% (inactive)
O=C(CSc1ncn(-c2ccccc2)n1)Nc1nc2ccccc2s1 | 10.5% (inactive)
Nc1nc2ccccc2n1/N=C/c1ccc(-c2ccccc2)o1 | 12.9% (inactive)
CCOc1ccc(NC(=O)Nc2cc(-c3ccccc3)sc2C(=O)OC)cc1 | 14.7% (inactive)
Cc1ccccc1N=C1SCC(=O)N1Cc1ccccc1 | 3.79% (inactive)

Structure (SMILES) | CPE inhibition
COc1ccccc1N1CCN(Cc2cc(C)c(C)cc2O)CC1 | 25.1% (inactive)
CCC(C)Sc1nc2c(c(=O)[nH]1)C(c1cccs1)C1=C(CCCC1=O)N2 (stereo not given) | 10.1% (inactive)
O=C(O)c1ccccc1Nc1ccc([N+](=O)[O-])cc1 | 24.6% (inactive)
COc1ccc(-c2noc(-c3cc(C)cc(C)c3)n2)cc1OC | 10% (inactive)
CC1=Nc2ccccc2/C1=C/c1c(N)n2c(S(=O)(=O)C(C)C)nsc2nc1=O | 19% (inactive)
O=C(/C=C/c1ccc2c(c1)OCCCO2)c1ccc2ccccc2c1O | 18.2% (inactive)
N#Cc1c(-c2ccco2)nc(SCC(=O)Nc2ccc(S(N)(=O)=O)cc2)[nH]c1=O | 4.9% (inactive)
COCCn1c(SCC(=O)Nc2cc(Cl)ccc2OC)nc2c(c1=O)SC(C)C2 (stereo not given) | 17.7% (inactive)
CCCCCNc1nc2ccccc2nc1NS(=O)(=O)c1cccs1 | 20.4% (inactive)
OC(c1ccccc1)C1CN(Cc2ccccc2)CCC1(O)c1ccccc1 (stereo not given) | 20.9% (inactive)
CCOC(=O)C1(CCCc2ccccc2)CCN(C2CCSCC2)CC1 | 11.3% (inactive)
COc1ccc(C(=O)NN/C(C)=C/C(=O)C(F)(F)C(F)(F)C(F)(F)F)cc1 | -14.6% (inactive)
COc1ccc(-c2nnc(-c3ccc(Br)o3)o2)cc1OC | 14.5% (inactive)
O=C(Nc1nc(-c2ccccc2)ns1)c1cccs1 | 15.2% (inactive)
O=C(Nc1nnc(SCc2ccccc2Cl)s1)C1COc2ccccc2O1 (stereo not given) | 16.7% (inactive)
O=S(=O)(c1ccc(Oc2ccc(Cl)cc2)c(S(=O)(=O)N2CCCCC2)c1)N1CCCCC1 | 22.6% (inactive)
Cc1cc(C)c(NC(=O)c2oc3ccccc3c2COc2ccccc2)c(C)c1 | 5.41% (inactive)
CCc1ccc(CCC(=O)Nc2ccccc2C(=O)O)o1 | 21.9% (inactive)
C/C(=N\NC(=O)c1c(Cl)c(C)nn1C)c1ccc(NC(=O)c2ccncc2)cc1 | 17.7% (inactive)
Cc1[nH]c2ccccc2c1C1=CCNCC1 | 3.08% (inactive)
COc1ccc2nc(NC(=O)C3=NN(c4ccccc4)C(=O)CC3)sc2c1 | -2.13% (inactive)
Cc1ccc(CSCc2nc3ccccc3[nH]2)cc1 | 12.9% (inactive)
CN1CCc2nc3sc(C#N)c(N)c3c(-c3cccs3)c2C1 | 10.1% (inactive)
